Key:
PANC02 cells = assay: MTT cytotoxicity assay in PANC02 cells; assay type: cell-based, murine; conditions: 96 h
Protocol: MTT assay. The combinational effect of PTX and GEM as well as the cytotoxicity of blank and drug-loaded micelles were investigated by MTT assay using murine pancreatic carcinoma cell lines PANC02 and H7 cells. Cells were seeded into a 96-well plate at a density of 5000 cells/well and incubated in 100 μL of Dulbecco's Modified Eagle medium (DMEM) containing 10% FBS for 24 h. Cells were treated with various concentrations of free PTX, GEM or micelles solution for 96 h. Then, 20 μL of MTT solution (5 mg/mL) were added to each well and the cells were incubated for another 4 h. After removing the medium, 100 μL of DMSO were added into each well to dissolve MTT formazan crystals. The optical density was measured using a microplate reader and the cell viability was calculated with untreated cells as a control.

CDA = CDA expression in PANC02 cells by western blot; assay type: cell-based, murine; conditions: vs control group
From the text: As described above, CDA is overexpressed in pancreatic cancer, which mediates the metabolism of cytidine analogue drugs, such as gemcitabine of GEM, leading to the resistance to treatment with these drugs. Thus, reducing the CDA expression provides a new therapeutic window for pancreatic cancer. We examined the CDA expression in PANC02 cells treated with various formulations by western blot.

## Nc1ccn([C@@H]2O[C@H](CO)[C@@H](O)C2(F)F)c(=O)n1 [free GEM, gemcitabine]
PANC02 cells
  Cytotoxicity (cell killing effect, in words): concentration-dependent cell killing effect
CDA
  CDA expression: not altered

From patent US12083185B2, “Small polymeric carriers for delivery of agents” (University of Pittsburgh—Of the Commonwealth System of …, priority 2018, dated 2024)
